Target: T1, USP25 (USP25-His6, Boston Biochem E-546) (Homo sapiens, UniProt Q9UHP3)
T1 construct: His6 (C); purchased Boston Biochem E-546
T1 sequence (Q9UHP3 1-1055): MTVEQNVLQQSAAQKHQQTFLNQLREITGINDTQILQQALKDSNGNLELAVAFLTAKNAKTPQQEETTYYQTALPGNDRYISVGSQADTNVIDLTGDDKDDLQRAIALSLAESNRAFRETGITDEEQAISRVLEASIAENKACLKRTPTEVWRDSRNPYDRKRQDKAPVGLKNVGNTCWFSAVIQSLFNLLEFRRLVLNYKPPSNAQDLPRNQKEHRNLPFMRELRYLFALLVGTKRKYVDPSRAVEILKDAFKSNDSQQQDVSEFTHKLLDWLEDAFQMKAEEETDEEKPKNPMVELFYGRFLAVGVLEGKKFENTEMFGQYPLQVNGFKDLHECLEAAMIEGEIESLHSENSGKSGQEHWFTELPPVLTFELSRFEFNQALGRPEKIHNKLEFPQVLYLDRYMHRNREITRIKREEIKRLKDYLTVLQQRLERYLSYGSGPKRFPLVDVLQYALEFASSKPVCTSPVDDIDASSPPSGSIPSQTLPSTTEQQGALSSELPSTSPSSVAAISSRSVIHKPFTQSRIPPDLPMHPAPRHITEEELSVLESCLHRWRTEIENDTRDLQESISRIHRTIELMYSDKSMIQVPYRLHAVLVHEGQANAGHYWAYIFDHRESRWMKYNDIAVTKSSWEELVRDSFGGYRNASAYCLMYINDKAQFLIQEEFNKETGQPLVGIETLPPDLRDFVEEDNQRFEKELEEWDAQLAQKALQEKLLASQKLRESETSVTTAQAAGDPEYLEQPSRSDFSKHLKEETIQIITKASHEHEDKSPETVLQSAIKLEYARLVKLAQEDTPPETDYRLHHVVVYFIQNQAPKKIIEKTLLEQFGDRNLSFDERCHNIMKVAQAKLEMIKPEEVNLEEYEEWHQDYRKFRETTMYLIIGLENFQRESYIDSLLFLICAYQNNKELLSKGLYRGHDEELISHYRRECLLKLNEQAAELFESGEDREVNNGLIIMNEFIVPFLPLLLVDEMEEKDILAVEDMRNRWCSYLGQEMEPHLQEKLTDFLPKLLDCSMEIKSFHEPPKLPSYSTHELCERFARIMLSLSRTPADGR
Experiment: Ubiquitin-Rhodamine 110 Assay for USP25 Activity, Example A-3
Type: biochemical
Settings: Ubiquitin-Rhodamine 110 assay, Example A-3; read-out: USP25 A-3 IC50 range
Experimental: Example A-3: Biochemical Assay: Ubiquitin-Rhodamine 110 Assay for USP25 Activity
The assay was performed in a final volume of 9 μL in assay buffer containing 20 mM Tris-HCl (pH 8.0, (1M Tris-HCl, pH 8.0 solution; Corning 46-031-CM)), 3 mM BME (2-Mercaptoethanol; Sigma 63689-25ML-F), 0.03% BGG (0.22 μM filtered, Sigma, G7516-25G), and 0.01% Triton X-100 (Sigma, T9284-10L). Nanoliter quantities of 10-point, 3-fold serial dilution in DMSO was pre-dispensed into 1536 assay plates (Corning, #3724BC) for a final test concentration of 25 μM to 1.3 nM, top to lowest dose, respectively. Enzyme USP25, construct USP25-His6, (Boston Biochem E-546). Concentration and incubation times were optimized for the maximal signal-to-background while maintaining initial velocity conditions at a fixed substrate concentration. The final concentration of the enzyme in the assay was […]. Final substrate (Ub-Rh110; Ubiquitin-Rhodamine 110, R&D Systems #U-555) concentration was 25 nM with [Ub-Rh110]<<Km. 3 μL of 2× enzyme was added to assay plates (pre-stamped with compound) preincubated with […] for 30 minutes and then 3 μL of 2× Ub-Rh110 was added to assay plates. Plates were incubated for 45 minutes at room temperature before addition of 3 μL of stop solution (final concentration of 10 mM citric acid (Sigma, 251275-500G)). Fluorescence was read on the Envision (Excitation at 485 nm and Emission at 535 nm; Perkin Elmer) or on the PheraSTAR (Excitation at 485 nm and Emission at 535 nm; BMG Labtech).
For assay formats Example A-1(a), A-1(b), and A-2, data were reported as percent inhibition compared with control wells based on the following equation: % inh=1−((FLU−AveLow)/(AveHigh−AveLow)) where FLU=measured Fluorescence, AveLow=average Fluorescence of no enzyme control (n=16), and AveHighh=average Fluorescence of DMSO control (n=16). IC50 values were determined by curve fitting of the standard 4 parameter logistic fitting algorithm included in the Activity Base software package: IDBS XE Designer Model 205. Data is fitted using the Levenburg Marquardt algorithm.

| SMILES | IC50 |
| --- | --- |
| Cc1ccc2c(N)c(C(=O)N[C@H]3CCc4nc(N5CC[C@]6(C5)OCC[C@H]6N)ccc4C3)sc2n1 [Example 408, 3-amino-N-[(6S)-2-[(4R,5R)-4-amino-1-oxa-7-azaspiro[4.4]nonan-7-yl]-5,6,7,8-tetrahydroquinolin-6-yl]-6-methylthieno[2,3-b]pyridine-2-carboxamide] | > 2000 nM |
| COC[C@H]1[C@H](N)CCN1c1ccc2c(n1)CC[C@H](NC(=O)c1sc3nc(C)ccc3c1N)C2 [Example 419, 3-amino-N-[(6S)-2-[(2R,3R)-3-amino-2-(methoxymethyl)pyrrolidin-1-yl]-5,6,7,8-tetrahydroquinolin-6-yl]-6-methylthieno[2,3-b]pyridine-2-carboxamide] | > 2000 nM |
| COC[C@@H]1[C@@H](N)CCN1c1ccc2c(n1)CC[C@H](NC(=O)c1sc3nc(C)ccc3c1N)C2 [Example 420, 3-amino-N-[(6S)-2-[(2S,3S)-3-amino-2-(methoxymethyl)pyrrolidin-1-yl]-5,6,7,8-tetrahydroquinolin-6-yl]-6-methylthieno[2,3-b]pyridine-2-carboxamide] | 50 to 200 nM |
| CCn1ccc2cc(C(=O)N[C@H]3CCc4nc(N5C[C@H](N)[C@@H](C(F)(F)F)C5)ccc4C3)cnc21 [Example 421, N-[(6S)-2-[(3R,4S)-3-amino-4-(trifluoromethyl)pyrrolidin-1-yl]-5,6,7,8-tetrahydroquinolin-6-yl]-1-ethyl-1H-pyrrolo[2,3-b]pyridine-5-carboxamide] | 200 to 2000 nM |
| CCn1ccc2cc(C(=O)N[C@H]3CCc4nc(N5C[C@@H](N)[C@H](C(F)(F)F)C5)ccc4C3)cnc21 [Example 422, N-[(6S)-2-[(3S,4R)-3-amino-4-(trifluoromethyl)pyrrolidin-1-yl]-5,6,7,8-tetrahydroquinolin-6-yl]-1-ethyl-1H-pyrrolo[2,3-b]pyridine-5-carboxamide] | > 2000 nM |
| CO[C@]1(C)CN(c2ccc3c(n2)CC[C@H](NC(=O)c2sc4nc(C)ccc4c2N)C3)C[C@@H]1N [Example 427, 3-amino-N-[(6S)-2-[(3R,4S)-4-amino-3-methoxy-3-methylpyrrolidin-1-yl]-5,6,7,8-tetrahydroquinolin-6-yl]-6-methylthieno[2,3-b]pyridine-2-carboxamide] | 200 to 2000 nM |
| CO[C@@]1(C)CN(c2ccc3c(n2)CC[C@H](NC(=O)c2sc4nc(C)ccc4c2N)C3)C[C@H]1N [Example 428, 3-amino-N-[(6S)-2-[(3S,4R)-4-amino-3-methoxy-3-methylpyrrolidin-1-yl]-5,6,7,8-tetrahydroquinolin-6-yl]-6-methylthieno[2,3-b]pyridine-2-carboxamide] | 200 to 2000 nM |
| Cc1ccc2c(N)c(C(=O)N[C@H]3CCc4nc(N5C6CC(N)CC5CS(=O)(=O)C6)ccc4C3)sc2n1 (stereo partly drawn) [Example 429, 3-amino-N-[(6S)-2-{7-amino-3,3-dioxo-3λ-thia-9-azabicyclo[3.3.1]nonan-9-yl}-5,6,7,8-tetrahydroquinolin-6-yl]-6-methylthieno[2,3-b]pyridine-2-carboxamide] | 50 to 200 nM |
| Cc1ccc2c(N)c(C(=O)N[C@H]3CCc4nc(N5C[C@H](N)[C@]6(CCOC6)C5)ccc4C3)sc2n1 [Example 430, 3-amino-N-[(6S)-2-[(5S,9R)-9-amino-2-oxa-7-azaspiro[4.4]nonan-7-yl]-5,6,7,8-tetrahydroquinolin-6-yl]-6-methylthieno[2,3-b]pyridine-2-carboxamide] | > 2000 nM |
| CO[C@@]12CCN[C@H]1CN(c1ccc3c(n1)CC[C@H](NC(=O)c1sc4nc(C)ccc4c1N)C3)C2 [Example 434, N-[(6S)-2-[(3aR,6aS)-3a-methoxy-octahydropyrrolo[2,3-c]pyrrol-5-yl]-5,6,7,8-tetrahydroquinolin-6-yl]-3-amino-6-methylthieno[2,3-b]pyridine-2-carboxamide] | > 2000 nM |
| CO[C@]12CCN[C@@H]1CN(c1ccc3c(n1)CC[C@H](NC(=O)c1sc4nc(C)ccc4c1N)C3)C2 [Example 435, N-[(6S)-2-[(3aS,6aR)-3a-methoxy-octahydropyrrolo[2,3-c]pyrrol-5-yl]-5,6,7,8-tetrahydroquinolin-6-yl]-3-amino-6-methylthieno[2,3-b]pyridine-2-carboxamide] | 200 to 2000 nM |

Source: patent US12162888B2, “Carboxamides as ubiquitin-specific protease inhibitors” (Valo Early Discovery, Inc., priority 2018, dated 2024)
